Laboratory results: article PMC7694092, “Antibacterial Cyclic Tripeptides from Antarctica-Sponge-Derived Fungus Aspergillus insulicola HDN151418” (Marine Drugs, 2020)
In brackets after ≈: the same amount, converted by molar mass. Read-outs that look alike come from different tables or passages of the source.

How the values were obtained:
Bacillus cereus = assay: microbe, parasite or virus in culture
Protocol: (§1) The antimicrobial activities of 1–6 against Bacillus cereus, Proteus species, Mycobacterium phlei, Bacillus subtilis, Vibrio parahemolyticus, Edwardsiella tarda, MRCNS, and MRSA were evaluated as previously reported by using the agar dilution method. […] All strains were donated by the Qingdao municipal hospital.

Bacillus subtilis = assay: microbe, parasite or virus in culture
Protocol: as §1

Edwardsiella tarda = assay: microbe, parasite or virus in culture
Protocol: as §1

Mycobacterium phlei = assay: microbe, parasite or virus in culture
Protocol: as §1

Proteus species = assay: organism not typed
Protocol: as §1

MRCNS = tested on: MRCNS
Protocol: as §1

MRSA = tested on: MRSA
Protocol: as §1

Vibrio parahemolyticus = assay: Antimicrobial activity (MIC), agar dilution method; assay type: cell-based; conditions: performed in triplicates
Protocol: as §1

in vitro [1] = assay type: cell-based; conditions: human; K562 cells; read-out: cytotoxic activity IC50
Description: (§2) HeLa (human epithelial carcinoma cell line), HCT-116 (human colon cancer cell line), MCF-7 (human breast adenocarcinoma cell line), A549 (human lung adenocarcinoma cell line), SH-SY5Y (human neuroblastoma cell line), MDA-MB-231 (human breast cancer cell line), HO8910 (human ovarian carcinoma cell line), and MGC-803 (human stomach carcinoma cell line) were ordered from Shanghai Institute of Biochemistry and Cell Biology, Chinese Academy of Sciences (Shanghai, China). K562 (human leukaemia cell line), BEL-7402 (human hepatic carcinoma cell line), L-02 (human normal hepatic cell line), GES-1 (human gastric epithelial cell line), U87 (human primary glioblastoma cell line), ASPC-1 (human pancreatic cancer cell line), PC-3 (human prostate carcinoma cell line), and NCI-H446 (human small cell lung cancer cell line) were ordered from the American Type Culture Collection (ATCC, Gaithersburg, MD, USA).

in vitro [2] = assay type: cell-based; conditions: human; BEL-7402 cells; read-out: cytotoxic activity IC50
Description: as §2

in vitro [3] = assay type: cell-based; conditions: human; HCT-116 cells; read-out: cytotoxic activity IC50
Description: as §2

in vitro [4] = assay type: cell-based; conditions: human; A549 cells; read-out: cytotoxic activity IC50
Description: as §2

in vitro [5] = assay type: cell-based; conditions: human; Hela cells; read-out: cytotoxic activity IC50
Description: as §2

in vitro [6] = assay type: cell-based; conditions: human; L-02 cells; read-out: cytotoxic activity IC50
Description: as §2

in vitro [7] = assay type: cell-based; conditions: human; U87 cells; read-out: cytotoxic activity IC50
in vitro [8] = assay type: cell-based; conditions: human; ASPC-1 cells; read-out: cytotoxic activity IC50
in vitro [9] = assay type: cell-based; conditions: human; SH-SY5Y cells; read-out: cytotoxic activity IC50
in vitro [10] = assay type: cell-based; conditions: human; PC-3 cells; read-out: cytotoxic activity IC50
in vitro [11] = assay type: cell-based; conditions: human; MGC-803 cells; read-out: cytotoxic activity IC50
Description: as §2

in vitro [12] = assay type: cell-based; conditions: human; HO8910 cells; read-out: cytotoxic activity IC50
Description: as §2

in vitro [13] = assay type: cell-based; conditions: human; MCF-7 cells; read-out: cytotoxic activity IC50
Description: as §2

in vitro [14] = assay type: cell-based; conditions: human; MDA-MB-231 cells; read-out: cytotoxic activity IC50
Description: as §2

in vitro [15] = assay type: cell-based; conditions: human; NCI-H446 cells; read-out: cytotoxic activity IC50
Description: as §2

in vitro [16] = conditions: human, GES-1 cells (gastric epithelial cell line)
[17] = dissolved in solvent mixture MeOH-H2O and exposed to air for two weeks; LC-MS
Description: It is well-known that some artificial compounds are formed from natural compounds due to oxidation when exposed to air.

| SMILES | MIC, B. cereus (Bacillus cereus) [µM] | MIC, B. subtilis (Bacillus subtilis) [µM] | MIC, E. tarda (Edwardsiella tarda) [µM] | MIC, M. phlei (Mycobacterium phlei) [µM] | MIC, P. species (Proteus species) [µM] | MIC, MRCNS (MRCNS) [µM] | MIC, MRSA (MRSA) [µM] | MIC, V. parahemolyticus (Vibrio parahemolyticus) [µM] | IC50 (in vitro [1]) [µM] | IC50 (in vitro [2]) [µM] | IC50 (in vitro [3]) [µM] | IC50 (in vitro [4]) [µM] | IC50 (in vitro [5]) [µM] | IC50 (in vitro [6]) [µM] | IC50 (in vitro [7]) [µM] | IC50 (in vitro [8]) [µM] | IC50 (in vitro [9]) [µM] | IC50 (in vitro [10]) [µM] | IC50 (in vitro [11]) [µM] | IC50 (in vitro [12]) [µM] | further results |
| --- | --- | --- | --- | --- | --- | --- | --- | --- | --- | --- | --- | --- | --- | --- | --- | --- | --- | --- | --- | --- | --- |
| CC(C)[C@H]1C(=O)N(C)[C@@H](C)C(=O)NCCC[C@H](NC(=O)/C=C/C=C/C(=O)O)C(=O)N1C [Compound 1] | 3.13 (≈ 1.37 µg/mL) | 6.25 (≈ 2.73 µg/mL) | 1.56 (≈ 0.681 µg/mL) | 3.13 (≈ 1.37 µg/mL) | 3.13 (≈ 1.37 µg/mL) | 12.5 (≈ 5.46 µg/mL) | 25.0 (≈ 10.9 µg/mL) | 3.13 (≈ 1.37 µg/mL) | > 30 | > 30 | > 30 | > 30 | > 30 | > 30 | > 30 | > 30 | > 30 | > 30 | > 30 | > 30 | IC50 (in vitro [13]): > 30 µM; IC50 (in vitro [14]): > 30 µM; IC50 (in vitro [15]): > 30 µM; IC50 (in vitro [16]): > 30 µM |
| CC(C)[C@H]1C(=O)N(C)[C@@H](C)C(=O)NCCC[C@H](NC(=O)/C=C/C=C/C=O)C(=O)N1C [Compound 5, sclerotiotide F] | 25.0 (≈ 10.5 µg/mL) | >50.0 | 25.0 (≈ 10.5 µg/mL) | >50.0 | 25.0 (≈ 10.5 µg/mL) | >50.0 | >50.0 | 25.0 (≈ 10.5 µg/mL) | > 30 | > 30 | > 30 | > 30 | > 30 | > 30 | > 30 | > 30 | > 30 | > 30 | > 30 | > 30 | IC50 (in vitro [13]): > 30 µM; IC50 (in vitro [14]): > 30 µM; IC50 (in vitro [15]): > 30 µM; IC50 (in vitro [16]): > 30 µM |
| O=C(O)c1cn(C2CC2)c2cc(N3CCNCC3)c(F)cc2c1=O [CIP, Ciprofloxacin, reference compound] | – | – | – | – | – | – | – | – | – | – | – | – | – | – | – | – | – | – | – | – | MIC (Bacillus cereus; Bacillus cereus, read-out: MIC, B. cereus): 0.78 µM (≈ 0.258 µg/mL); MIC (Bacillus subtilis; Bacillus subtilis, read-out: MIC, B. subtilis): 0.195 µM (≈ 0.0646 µg/mL); MIC (Edwardsiella tarda; Edwardsiella tarda, read-out: MIC, E. tarda): 0.0125 µM (≈ 0.00414 µg/mL); MIC (Mycobacterium phlei; Mycolicibacterium phlei, read-out: MIC, M. phlei): 0.78 µM (≈ 0.258 µg/mL); MIC (Proteus species; read-out: MIC, P. species): 0.195 µM (≈ 0.0646 µg/mL) |
| C/C=C/C=C/C=C/C(=O)N[C@H]1CCCNC(=O)[C@H](C)N(C)C(=O)[C@H](C(C)C)N(C)C1=O [Compound 6, sclerotiotide B] | >50.0 | >50.0 | >50.0 | >50.0 | >50.0 | >50.0 | >50.0 | >50.0 | > 30 | > 30 | > 30 | > 30 | > 30 | > 30 | > 30 | > 30 | > 30 | > 30 | > 30 | > 30 | IC50 (in vitro [13]): > 30 µM; IC50 (in vitro [14]): > 30 µM; IC50 (in vitro [15]): > 30 µM; chemical stability (products formed) [17]: compounds 4 and 5 were also detected from the product; IC50 (in vitro [16]): > 30 µM |
| COC(=O)/C=C/C=C/C(=O)N[C@H]1CCCNC(=O)[C@H](C)N(C)C(=O)[C@H](C(C)C)N(C)C1=O [Compound 2, (2′E,4′E)-cyclo-[(NMe-L-Ala)-(NMe-L-Val)-(Nα-6-methoxy-6-oxohexa-2,4-dienoyl-L-Orn)]] | 6.25 (≈ 2.82 µg/mL) | 12.5 (≈ 5.63 µg/mL) | 1.56 (≈ 0.703 µg/mL) | 12.5 (≈ 5.63 µg/mL) | 6.25 (≈ 2.82 µg/mL) | 25.0 (≈ 11.3 µg/mL) | 25.0 (≈ 11.3 µg/mL) | 6.25 (≈ 2.82 µg/mL) | > 30 | > 30 | > 30 | > 30 | > 30 | > 30 | > 30 | > 30 | > 30 | > 30 | > 30 | > 30 | IC50 (in vitro [13]): > 30 µM; IC50 (in vitro [14]): > 30 µM; IC50 (in vitro [15]): > 30 µM; IC50 (in vitro [16]): > 30 µM |
| CO[C@H](C)[C@@H](/C=C/C=C/C(=O)N(C)[C@H]1CCCN(C)C(=O)[C@H](C)N(C)C(=O)[C@H](C(C)C)N(C)C1=O)OC [Compound 3] | >50.0 | >50.0 | 25.0 (≈ 13.1 µg/mL) | >50.0 | >50.0 | >50.0 | >50.0 | 25.0 (≈ 13.1 µg/mL) | > 30 | > 30 | > 30 | > 30 | > 30 | > 30 | > 30 | > 30 | > 30 | > 30 | > 30 | > 30 | IC50 (in vitro [13]): > 30 µM; IC50 (in vitro [14]): > 30 µM; IC50 (in vitro [15]): > 30 µM; IC50 (in vitro [16]): > 30 µM |
| CO[C@H](/C=C/C=C/C(=O)N[C@H]1CCCNC(=O)[C@H](C)N(C)C(=O)[C@H](C(C)C)N(C)C1=O)[C@@H](C)O [Compound 4, (2′E,4′E)-cyclo-[(NMe-L-Ala)-(NMe-L-Val)-(Nα-(6R,7R)-7-hydroxy-6-methoxyocta-2,4-dienoyl-L-Orn)]] | 25.0 (≈ 12 µg/mL) | >50.0 | 25.0 (≈ 12 µg/mL) | >50.0 | 25.0 (≈ 12 µg/mL) | >50.0 | >50.0 | 25.0 (≈ 12 µg/mL) | > 30 | > 30 | > 30 | > 30 | > 30 | > 30 | > 30 | > 30 | > 30 | > 30 | > 30 | > 30 | IC50 (in vitro [13]): > 30 µM; IC50 (in vitro [14]): > 30 µM; IC50 (in vitro [15]): > 30 µM; IC50 (in vitro [16]): > 30 µM |
